Columns and labels:
[1] = test system: NASH model mice (STAM mouse); assay: NASH model (STAM) mice, oral administration once a day for 28 days; liver tissue images, liver weight, serum and hepatic markers, NAS; assay type: in vivo; design: TNF-alpha, Score showing the degree of inflammation / IFN-gamma, Score showing the degree of inflammation: scale not given here; conditions: for serum ferritin level: oral 28 days (FIG. 7); for TNF-alpha, Score showing the degree of inflammation: oral 28 days (FIG. 11); for IFN-gamma, Score showing the degree of inflammation: oral 28 days (FIG. 12); for hepatic fibrosis area ratio: oral 28 days (FIG. 13); for weight ratio of liver to body / serum ALT level / hepatic TG (hepatic triglyceride) / MCP-1 (monocyte chemotactic protein-1) / NAS (NAFLD activity score) / hepatic ballooning score / lobular inflammation score / steatosis score / NAS (NAFLD activity score) improvement, in words: oral 28 days; for weight ratio of liver to body: after administration (FIG. 5); for serum ALT level: after administration (FIG. 6); for hepatic TG (hepatic triglyceride): after administration (FIG. 9); for MCP-1 (monocyte chemotactic protein-1): after administration (FIG. 10); for NAS (NAFLD activity score): full score of 8 (FIG. 17); for hepatic ballooning score: score of 0 to 2 (FIG. 14); for lobular inflammation score: score of 0 to 3 (FIG. 15); for steatosis score: score of 0 to 3 (FIG. 16); for liver weight: oral once a day, 28 days, polaprezinc 45.2 mg/kg, sodium selenite 150 μg/kg, after administration (FIG. 4); for NAS (NAFLD activity score) improvement, in words: comparison between groups
Protocol: An internationally prized and recognized STAM (registered trademark) mouse was used for the research model of non-alcoholic fatty liver disease (NAFLD) and/or non-alcoholic steatohepatitis (NASH). A STAM (registered trademark) mouse is an animal model of non-alcoholic steatohepatitis prepared by administrating inflammation inducer of the pancreas (patent literature 2) which Stelic Institute & Co. developed and is publically informed as patentee, and many research reports using this animal model has already been made domestic and overseas.
The NASH model mice were assigned to four groups (eight mice per group) by body weight stratification random sampling method so that the average body weight is equal. The four groups are the zinc preparation (polaprezinc)+selenium preparation (sodium selenite) group, zinc preparation (polaprezinc) alone group, selenium preparation (sodium selenite) alone group, and control group. The route of administration was oral administration, and the period of administration was 28 days.
The number of administration was once a day. The dosage was 10 ml/kg body weight and was administrated using an oral zonde.
The dosages of each group are shown below.
Blood was collected from the heart under ether anesthesia at the end of administration. The obtained serum was divisionally injected into a tube. It was euthanized by exsanguination after blood sampling and the photograph of the extracted liver was taken. For all necropsied animals, treatment was made to divide the liver into four respective lobes (right/left medial lobe, left lateral lobe, right lobe, caudate lobe), wherein especially the left lateral lobe was treated for three parts taking two each of its six equally divided parts, and the tissue image was analyzed.
The evaluation for non-alcoholic fatty liver disease (NAFLD) and/or non-alcoholic steatohepatitis (NASH) improvement was evaluated by the following items.
NAS (NAFLD activity score) is used to evaluate non-alcoholic fatty liver disease (NAFLD). NAS is advocated by Nonalcoholic⋅Steato⋅hepatitis⋅Clinical⋅Research⋅Network (nonpatent literature 2). […] The activity of NAS is evaluated by putting the three of steatosis, lobular inflammation, and Ballooning degeneration into scores. It is shown in full score of 8 in total, score of 0 to 3 for steatosis and lobular inflammation, and score of 0 to 2 for hepatic Ballooning degeneration. Steatosis, lobular inflammation, hepatic Ballooning degeneration, and NAS (NAFLD activity score) was compared and examined for the four groups, the group of the combination drug of zinc preparation (polaprezinc) and selenium preparation (sodium selenite), the control group, the zinc preparation (polaprezinc) alone group, and the selenium preparation (sodium selenite) alone group.

[2] = test system: hepatic fibrosis; conditions: from patent literature 1, nonpatent literature 3 and 5; cited from earlier work

SMILES	serum ferritin level [1]	TNF-alpha, Score showing the degree of inflammation [1]	IFN-gamma, Score showing the degree of inflammation [1]	hepatic fibrosis area ratio [1] [%]	weight ratio of liver to body [1] [%]	serum ALT level [1] [IU/L]	hepatic TG (hepatic triglyceride) [1] [mg/dL]	MCP-1 (monocyte chemotactic protein-1) [1]	NAS (NAFLD activity score) [1]	hepatic ballooning score [1]	lobular inflammation score [1]	steatosis score [1]	liver weight [1]	F4/80 (macrophage) antigen expression level in stained liver tissue ([1]; oral 28 days (FIG. 2-1, 2-2))	NAS (NAFLD activity score) improvement, in words [1]	NAS (NAFLD activity score) improvement, in words ([1]; listed as Zinc preparation (polaprezinc))	suppression of hepatic fibrosis (prior reports) [2]
O=[Se](O)O [selenium preparation (sodium selenite), sodium selenite]	5,251 ng/ml	13.23	8.02	1.18	7.43	54.6	57.3	3.2	3.54	1.23	1.46	0.85	1,385.2 mg				
NCCC(=O)[N-][C@@H](Cc1c[nH]cn1)C(=O)[O-].[Zn+2] [zinc preparation (polaprezinc), L-carnosine zinc salt]	5,740 ng/ml	12.80	7.95	1.16	7.49	58.8	64.2	3.3	3.62	1.38	1.38	0.85	1,389 mg	suppresses the expression level significantly compared with the control	significantly declined NAS (NAFLD activity score) compared with the control group	showed improvement compared to the control group	suppresses hepatic fibrosis

From patent publication US11058718B2, “Method for treating non-alcoholic steatohepatitis (NASH) with the combination of polaprezinc and sodium selenite” (Medico Consl Co., Ltd., priority 2019, dated 2021)
